Measured values reported in article PMC7932521, “2-aminobenzimidazoles for leishmaniasis: From initial hit discovery to in vivo profiling” (PLoS Neglected Tropical Diseases, 2021).
pEC50, pIC50: −log10 of the molar value. Where two headings read alike, the source gives them in different places.

Experiments:
[1] = Parallel artificial membrane permeability assay (PAMPA); type: in vitro ADME
Summary of the method: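 Compounds at 10μM final in PBS pH 6.5 (donor) against PBS pH 7.4 (acceptor) across lipid-coated membranes, incubated 5 h at 37°C. Donor, acceptor and T0 levels measured by LC-MS/MS to derive effective permeability (Pe); n = 3.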

Cav1.2 (L-type) = Cav1.2 (L-type) (Mus musculus, UniProt Q01815); assay: Bioprofiling 6pt Ag Cav1.2 (L-type) ND7/23; type: cell-based; details: mouse/rat, ND7/23 cells; agonist readout
Procedure: (§1) The compounds were evaluated across a panel of 20 liability targets (37 functional assays) which included functional cell-based GPCRs and ion channels in both agonist and antagonist readout, measuring calcium flux and biochemical functional assays for nuclear hormone receptors and phosphodiesterases using TR-FRET format, in a 6 point 1:3 dilution dose series (maximum final concentration of 10 μM).

H1 [2] = target: T1, H1 (Homo sapiens, UniProt P35367); assay: Bioprofiling 6pt Ag H1 CHO; type: cell-based; details: agonist readout
T1 construct: expressed in transfected cells; host or cells: CHO
Procedure: as §1

5-HT1A = target: T2, 5-HT1A (Homo sapiens, UniProt P08908); assay: Bioprofiling 6pt Antag 5-HT1A CHO; type: cell-based; details: antagonist readout vs 5-Carboxytryptamine (5-CT)
T2 construct: expressed in transfected cells; host or cells: CHO
T2 sequence (P08908 1-422): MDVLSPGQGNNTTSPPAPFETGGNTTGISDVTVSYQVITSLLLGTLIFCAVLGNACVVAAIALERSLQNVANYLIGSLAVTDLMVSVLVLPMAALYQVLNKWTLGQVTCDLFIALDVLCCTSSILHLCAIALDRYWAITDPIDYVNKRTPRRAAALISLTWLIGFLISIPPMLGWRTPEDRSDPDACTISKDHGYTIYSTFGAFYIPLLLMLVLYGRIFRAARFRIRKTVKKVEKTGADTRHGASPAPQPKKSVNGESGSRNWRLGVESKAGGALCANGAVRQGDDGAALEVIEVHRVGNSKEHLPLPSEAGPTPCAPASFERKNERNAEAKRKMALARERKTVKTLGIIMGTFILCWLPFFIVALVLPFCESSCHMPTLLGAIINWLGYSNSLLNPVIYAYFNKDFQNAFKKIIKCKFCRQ
Procedure: as §1

5-HT2A = target: T3, 5-HT2A (Homo sapiens, UniProt P28223); assay: Bioprofiling 6pt Antag 5-HT2A CHO; type: cell-based; details: antagonist readout vs Serotonin (5-HT)
T3 construct: expressed in transfected cells; host or cells: CHO
Procedure: as §1

A1 = target: T4, A1 (Homo sapiens, UniProt P30542); assay: Bioprofiling 6pt Antag A1 CHO; type: cell-based; details: antagonist readout vs N6-Cyclopentyladenosine (CPA)
T4 construct: expressed in transfected cells; host or cells: CHO
T4 sequence (P30542 1-326): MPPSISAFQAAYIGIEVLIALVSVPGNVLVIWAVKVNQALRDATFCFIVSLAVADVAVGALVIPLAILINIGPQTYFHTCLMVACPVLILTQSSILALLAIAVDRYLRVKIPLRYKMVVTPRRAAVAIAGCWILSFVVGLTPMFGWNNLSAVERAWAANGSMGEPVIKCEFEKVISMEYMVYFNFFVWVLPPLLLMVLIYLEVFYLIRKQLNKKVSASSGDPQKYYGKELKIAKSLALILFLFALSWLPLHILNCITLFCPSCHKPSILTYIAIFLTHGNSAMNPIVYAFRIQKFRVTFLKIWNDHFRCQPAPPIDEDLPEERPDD
Procedure: as §1

B2 = target: T5, B2 (Homo sapiens, UniProt P30411); assay: Bioprofiling 6pt Antag B2 CHO; type: cell-based; details: antagonist readout vs Bradykinin
T5 construct: expressed in transfected cells; host or cells: CHO
T5 sequence (P30411 1-391): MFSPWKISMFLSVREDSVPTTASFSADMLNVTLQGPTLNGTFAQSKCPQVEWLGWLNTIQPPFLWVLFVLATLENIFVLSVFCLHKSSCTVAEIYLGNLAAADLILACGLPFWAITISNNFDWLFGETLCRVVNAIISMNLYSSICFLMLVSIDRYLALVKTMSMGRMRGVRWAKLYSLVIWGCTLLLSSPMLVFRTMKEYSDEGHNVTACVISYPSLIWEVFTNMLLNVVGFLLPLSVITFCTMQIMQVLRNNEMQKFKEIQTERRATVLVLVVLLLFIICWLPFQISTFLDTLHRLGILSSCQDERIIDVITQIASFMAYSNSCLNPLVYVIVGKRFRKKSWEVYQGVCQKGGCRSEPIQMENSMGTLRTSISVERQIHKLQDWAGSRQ
Procedure: as §1

D2L = target: T6, D2L (Homo sapiens, UniProt P14416); assay: Bioprofiling 6pt Antag D2L CHO; type: cell-based; details: antagonist readout vs Quinpirole
T6 construct: expressed in transfected cells; host or cells: CHO
Procedure: as §1

H1 [3] = target: T1, H1; assay: Bioprofiling 6pt Antag H1 CHO; type: cell-based; details: antagonist readout vs Histamine
Procedure: as §1

M2 = target: T7, M2 (Homo sapiens, UniProt P08172); assay: Bioprofiling 6pt Antag M2 CHO; type: cell-based; details: antagonist readout vs Carbachol
T7 construct: expressed in transfected cells; host or cells: CHO
T7 sequence (P08172 1-466): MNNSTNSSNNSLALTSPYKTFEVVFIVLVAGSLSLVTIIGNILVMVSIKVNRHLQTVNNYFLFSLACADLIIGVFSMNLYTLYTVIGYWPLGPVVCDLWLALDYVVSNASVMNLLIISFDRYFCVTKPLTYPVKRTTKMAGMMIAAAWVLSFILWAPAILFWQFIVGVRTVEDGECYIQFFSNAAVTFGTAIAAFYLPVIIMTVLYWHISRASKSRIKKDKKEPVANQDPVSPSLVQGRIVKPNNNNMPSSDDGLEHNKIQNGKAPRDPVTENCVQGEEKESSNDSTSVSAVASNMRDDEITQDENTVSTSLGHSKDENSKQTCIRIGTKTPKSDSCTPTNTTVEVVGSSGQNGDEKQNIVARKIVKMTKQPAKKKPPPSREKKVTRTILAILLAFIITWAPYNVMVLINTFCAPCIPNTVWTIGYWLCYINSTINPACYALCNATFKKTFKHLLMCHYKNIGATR
Procedure: as §1

Opioid mu = target: T8, Opioid mu (Homo sapiens, UniProt P35372); assay: Bioprofiling 6pt Antag Opioid mu CHO; type: cell-based; details: antagonist readout vs DAMGO
T8 construct: expressed in transfected cells; host or cells: CHO
Procedure: as §1

PDE4B2 = PDE4B2 (Homo sapiens, UniProt Q07343); assay: Bioprofiling 6pt Antag PDE4B2; type: biochemical; details: substrate cAMP
Procedure: as §1

[4] = PAMPA, S1 Data, read-out: PAMPA Pe
[5] = passive permeability, read-out: PAMPA

T3 sequence (P28223 whole entry): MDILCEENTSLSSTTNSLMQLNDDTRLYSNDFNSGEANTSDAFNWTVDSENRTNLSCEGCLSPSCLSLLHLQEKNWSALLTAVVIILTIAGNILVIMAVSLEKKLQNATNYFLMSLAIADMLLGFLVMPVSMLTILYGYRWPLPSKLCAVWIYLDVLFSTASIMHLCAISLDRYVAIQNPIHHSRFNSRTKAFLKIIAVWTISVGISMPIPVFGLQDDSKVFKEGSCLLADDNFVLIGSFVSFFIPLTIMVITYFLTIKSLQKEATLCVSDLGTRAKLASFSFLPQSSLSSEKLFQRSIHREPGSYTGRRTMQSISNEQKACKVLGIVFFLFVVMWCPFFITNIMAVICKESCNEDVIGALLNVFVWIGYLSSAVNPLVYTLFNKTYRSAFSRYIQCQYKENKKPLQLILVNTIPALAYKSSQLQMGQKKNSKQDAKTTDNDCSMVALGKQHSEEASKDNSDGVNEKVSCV
T6 sequence (P14416 whole entry): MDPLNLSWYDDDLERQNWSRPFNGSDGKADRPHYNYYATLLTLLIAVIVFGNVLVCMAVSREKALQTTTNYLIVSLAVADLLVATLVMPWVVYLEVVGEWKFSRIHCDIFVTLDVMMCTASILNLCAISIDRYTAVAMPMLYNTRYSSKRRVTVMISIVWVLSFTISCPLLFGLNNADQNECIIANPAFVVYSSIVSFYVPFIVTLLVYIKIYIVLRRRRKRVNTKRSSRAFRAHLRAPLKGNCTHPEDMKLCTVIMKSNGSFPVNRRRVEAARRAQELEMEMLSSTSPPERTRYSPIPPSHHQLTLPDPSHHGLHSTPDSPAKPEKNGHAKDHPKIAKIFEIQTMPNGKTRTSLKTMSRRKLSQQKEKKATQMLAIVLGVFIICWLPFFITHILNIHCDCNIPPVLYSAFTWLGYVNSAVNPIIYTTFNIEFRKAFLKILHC
Chain of PDE4B2 (Q07343 1-564 isoform Q07343-2): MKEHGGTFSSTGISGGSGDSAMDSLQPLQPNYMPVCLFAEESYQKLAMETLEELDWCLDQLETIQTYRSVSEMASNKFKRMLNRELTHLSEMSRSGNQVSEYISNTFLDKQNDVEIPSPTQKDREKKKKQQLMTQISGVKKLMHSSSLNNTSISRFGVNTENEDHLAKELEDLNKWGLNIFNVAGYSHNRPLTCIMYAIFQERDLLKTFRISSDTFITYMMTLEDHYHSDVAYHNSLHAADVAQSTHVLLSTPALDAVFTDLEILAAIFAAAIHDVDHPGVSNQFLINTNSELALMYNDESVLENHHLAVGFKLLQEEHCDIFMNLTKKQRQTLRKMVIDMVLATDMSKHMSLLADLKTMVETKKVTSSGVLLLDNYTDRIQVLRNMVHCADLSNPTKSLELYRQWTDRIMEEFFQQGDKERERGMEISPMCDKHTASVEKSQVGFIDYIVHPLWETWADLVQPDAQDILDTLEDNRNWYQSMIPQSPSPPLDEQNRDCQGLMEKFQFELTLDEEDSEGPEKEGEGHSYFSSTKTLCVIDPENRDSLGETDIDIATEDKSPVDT
T8 sequence (P35372 whole entry): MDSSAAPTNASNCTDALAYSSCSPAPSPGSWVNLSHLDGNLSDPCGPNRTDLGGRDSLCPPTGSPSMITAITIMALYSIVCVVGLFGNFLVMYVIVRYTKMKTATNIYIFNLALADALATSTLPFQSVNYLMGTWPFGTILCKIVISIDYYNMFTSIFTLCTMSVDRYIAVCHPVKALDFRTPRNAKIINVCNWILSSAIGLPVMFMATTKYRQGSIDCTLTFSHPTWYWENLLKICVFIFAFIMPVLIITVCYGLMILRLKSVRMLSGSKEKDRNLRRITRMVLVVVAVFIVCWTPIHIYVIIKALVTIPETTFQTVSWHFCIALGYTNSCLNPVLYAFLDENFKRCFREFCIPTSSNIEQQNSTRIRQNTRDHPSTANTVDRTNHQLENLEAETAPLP
Chain of Cav1.2 (L-type) (Q01815 whole entry): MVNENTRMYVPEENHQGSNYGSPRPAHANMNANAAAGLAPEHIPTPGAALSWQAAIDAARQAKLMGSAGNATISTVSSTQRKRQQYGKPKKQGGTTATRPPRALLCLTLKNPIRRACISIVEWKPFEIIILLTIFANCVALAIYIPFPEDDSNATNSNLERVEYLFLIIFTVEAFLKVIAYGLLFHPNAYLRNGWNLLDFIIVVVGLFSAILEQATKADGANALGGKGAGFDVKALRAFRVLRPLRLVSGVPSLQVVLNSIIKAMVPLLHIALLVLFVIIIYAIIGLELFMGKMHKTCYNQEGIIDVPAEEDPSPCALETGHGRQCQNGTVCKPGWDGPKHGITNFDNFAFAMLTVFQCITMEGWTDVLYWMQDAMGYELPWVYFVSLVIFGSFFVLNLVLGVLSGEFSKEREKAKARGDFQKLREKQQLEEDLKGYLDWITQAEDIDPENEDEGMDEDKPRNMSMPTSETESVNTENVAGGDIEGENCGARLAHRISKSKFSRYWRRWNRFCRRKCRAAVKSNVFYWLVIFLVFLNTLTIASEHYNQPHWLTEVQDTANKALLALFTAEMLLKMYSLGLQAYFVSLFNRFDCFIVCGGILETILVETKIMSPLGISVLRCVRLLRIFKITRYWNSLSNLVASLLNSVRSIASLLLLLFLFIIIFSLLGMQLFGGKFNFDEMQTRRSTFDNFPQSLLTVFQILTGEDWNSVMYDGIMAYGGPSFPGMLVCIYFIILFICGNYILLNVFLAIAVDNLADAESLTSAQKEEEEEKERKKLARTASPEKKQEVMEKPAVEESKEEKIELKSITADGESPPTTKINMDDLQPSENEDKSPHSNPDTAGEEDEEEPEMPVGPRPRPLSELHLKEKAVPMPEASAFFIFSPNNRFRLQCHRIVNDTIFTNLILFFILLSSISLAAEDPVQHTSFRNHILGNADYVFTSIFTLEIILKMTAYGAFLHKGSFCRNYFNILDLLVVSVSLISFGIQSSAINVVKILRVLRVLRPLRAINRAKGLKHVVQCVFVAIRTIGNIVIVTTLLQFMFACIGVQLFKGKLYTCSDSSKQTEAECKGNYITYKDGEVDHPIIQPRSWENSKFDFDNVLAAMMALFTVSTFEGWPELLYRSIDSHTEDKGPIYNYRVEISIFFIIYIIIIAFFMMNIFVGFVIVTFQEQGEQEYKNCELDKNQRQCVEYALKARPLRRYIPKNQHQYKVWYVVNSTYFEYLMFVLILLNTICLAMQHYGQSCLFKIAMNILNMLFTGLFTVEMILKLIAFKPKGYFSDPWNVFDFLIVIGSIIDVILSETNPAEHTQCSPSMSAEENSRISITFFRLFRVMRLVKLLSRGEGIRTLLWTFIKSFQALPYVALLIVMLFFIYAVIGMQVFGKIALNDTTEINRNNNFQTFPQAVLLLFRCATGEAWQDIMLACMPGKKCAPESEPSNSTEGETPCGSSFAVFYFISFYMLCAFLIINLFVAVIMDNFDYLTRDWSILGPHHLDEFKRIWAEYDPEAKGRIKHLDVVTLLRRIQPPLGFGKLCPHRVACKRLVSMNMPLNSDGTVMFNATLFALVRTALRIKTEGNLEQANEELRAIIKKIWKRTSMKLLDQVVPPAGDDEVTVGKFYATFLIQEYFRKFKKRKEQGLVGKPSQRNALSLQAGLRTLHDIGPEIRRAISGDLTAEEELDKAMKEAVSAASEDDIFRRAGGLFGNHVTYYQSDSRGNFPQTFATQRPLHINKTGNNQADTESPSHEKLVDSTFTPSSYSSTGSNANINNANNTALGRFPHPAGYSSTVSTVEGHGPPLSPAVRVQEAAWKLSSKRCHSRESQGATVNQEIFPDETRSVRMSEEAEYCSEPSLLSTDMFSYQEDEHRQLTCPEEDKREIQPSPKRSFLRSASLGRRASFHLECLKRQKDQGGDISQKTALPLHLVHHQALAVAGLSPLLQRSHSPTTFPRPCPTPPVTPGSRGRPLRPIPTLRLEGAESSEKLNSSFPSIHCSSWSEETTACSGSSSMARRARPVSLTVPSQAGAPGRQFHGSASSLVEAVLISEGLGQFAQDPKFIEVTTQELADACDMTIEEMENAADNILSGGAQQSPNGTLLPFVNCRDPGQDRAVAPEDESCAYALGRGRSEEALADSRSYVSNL
T1 sequence (P35367 whole entry): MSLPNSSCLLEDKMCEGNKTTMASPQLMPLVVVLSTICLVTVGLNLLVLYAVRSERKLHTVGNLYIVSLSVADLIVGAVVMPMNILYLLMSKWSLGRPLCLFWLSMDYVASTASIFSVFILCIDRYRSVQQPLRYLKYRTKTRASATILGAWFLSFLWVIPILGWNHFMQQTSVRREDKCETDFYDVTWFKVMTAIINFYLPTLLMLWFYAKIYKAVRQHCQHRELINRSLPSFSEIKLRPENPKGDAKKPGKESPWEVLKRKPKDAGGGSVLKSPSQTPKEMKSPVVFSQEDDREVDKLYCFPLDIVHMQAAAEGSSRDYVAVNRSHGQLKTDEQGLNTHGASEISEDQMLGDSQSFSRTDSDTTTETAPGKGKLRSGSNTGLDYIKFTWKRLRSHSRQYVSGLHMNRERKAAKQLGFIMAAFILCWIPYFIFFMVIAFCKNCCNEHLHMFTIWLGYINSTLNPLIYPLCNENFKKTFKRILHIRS

SMILES | Papp at 5 h, 10 μM [1, 4] [nm/s] | Papp at 5 h, 10 μM [1, 5] [nm/s] | pEC50 (Cav1.2 (L-type)) | pEC50 (H1 [2]) | pIC50 (5-HT1A) | pIC50 (5-HT2A) | pIC50 (A1) | pIC50 (B2) | pIC50 (D2L) | pIC50 (H1 [3]) | pIC50 (M2) | pIC50 (Opioid mu) | pIC50 (PDE4B2)
Cn1nccc1C(=O)Nc1nc2ccc(C#N)cc2n1CC(C)(C)C [Compound 29, O=C(Nc1n(CC(C)(C)C)c(c2n1)cc(C#N)cc2)c3n(C)ncc3] | 87.1 | 47 | < 5.00 | < 5.00 | < 5.00 | < 5.00 | < 5.00 | < 5.00 | < 5.00 | < 5.00 | < 5.00 | < 5.00 | < 5.00
Cn1nccc1C(=O)Nc1nc2ccc(C#N)cc2n1CC(F)(F)F [Compound 30, O=C(c1ccnn1C)Nc2nc(ccc(C#N)c3)c3n2CC(F)(F)F] | 279 | 79 | < 5.00 | < 5.00 | < 5.00 | < 5.00 | < 5.00 | < 5.00 | < 5.00 | < 5.00 | < 5.00 | < 5.00 | < 5.00
Cn1nc(C(F)(F)F)cc1C(=O)Nc1nc2ccc(C#N)cc2n1CC(F)(F)F [Compound 39, O=C(c1cc(C(F)(F)F)nn1C)Nc2nc(ccc(C#N)c3)c3n2CC(F)(F)F] | 24 | 100 | < 5.00 | < 5.00 | < 5.00 | < 5.00 | < 5.00 | < 5.00 | < 5.00 | < 5.00 | < 5.00 | < 5.00 | < 5.00
COc1ccc(C(=O)Nc2nc3ccc(C#N)cc3n2CC(F)(F)F)cn1 [Compound 43, O=C(c1ccc(OC)nc1)Nc2nc(ccc(C#N)c3)c3n2CC(F)(F)F] | 147 | – | < 5.00 | < 5.00 | < 5.00 | < 5.00 | < 5.00 | < 5.00 | < 5.00 | < 5.00 | < 5.00 | < 5.00 | < 5.00
N#Cc1ccc2nc(NC(=O)c3ccnc(C(F)(F)F)c3)n(CC(F)(F)F)c2c1 [Compound 44, O=C(c1ccnc(C(F)(F)F)c1)Nc2nc(ccc(C#N)c3)c3n2CC(F)(F)F] | 23.2 | 23 | < 5.00 | < 5.00 | < 5.00 | < 5.00 | < 5.00 | < 5.00 | < 5.00 | < 5.00 | < 5.00 | < 5.00 | < 5.00
N#Cc1ccc2nc(NC(=O)c3ccc(C(F)(F)F)nc3)n(CC(F)(F)F)c2c1 [Compound 45, O=C(c1ccc(C(F)(F)F)nc1)Nc2nc(ccc(C#N)c3)c3n2CC(F)(F)F] | 54.3 | – | < 5.00 | < 5.00 | < 5.00 | < 5.00 | < 5.00 | < 5.00 | < 5.00 | < 5.00 | < 5.00 | < 5.00 | < 5.00
